Assay results: US8568784B2, “Nanoparticles for delivery of active agents” (Morehouse School of Medicine, priority 2006, dated 2013)

assay: Percent entrapment and loading studies of particles; type: physicochemical; conditions: entrapped in PCL-XP particles

entrapment efficiency [%]	loading per weight of the particles [%]	SMILES
~100	~20	O=S(=O)([O-])c1cc(S(=O)(=O)Cl)ccc1C1=c2cc3c4c(c2Oc2c1cc1c5c2CCCN5CCC1)CCC[N+]=4CCC3 [TR, Texas Red]
~100	~20	[Gd] [gadolinium]

SMILES	entrapment efficiency [%]	loading per weight of the particles [%]
N.N.[Cl][Pt][Cl] [cisplatin]	~100	~20
